Two compounds from PMC12152171, “Dual-mode recognition of tRNA^Pro isoacceptors by Toxoplasma gondii Prolyl-tRNA synthetase” (EMBO Reports, 2025) can be followed below.

pIC50: −log10 of the molar value. Like-named read-outs stand apart in the source and are kept apart here.

For assay [1], the target named is T1, Toxoplasma gondii prolyl-tRNA synthetase (TgProRS) (Toxoplasma gondii, UniProt S8G8I1).
T1 construct: gene TGME49_219850; lacking OTS and ProXp-ala (amino acid residues 1–333 removed), N-terminal His10 tag
T1 sequence (S8G8I1 entry or part of it): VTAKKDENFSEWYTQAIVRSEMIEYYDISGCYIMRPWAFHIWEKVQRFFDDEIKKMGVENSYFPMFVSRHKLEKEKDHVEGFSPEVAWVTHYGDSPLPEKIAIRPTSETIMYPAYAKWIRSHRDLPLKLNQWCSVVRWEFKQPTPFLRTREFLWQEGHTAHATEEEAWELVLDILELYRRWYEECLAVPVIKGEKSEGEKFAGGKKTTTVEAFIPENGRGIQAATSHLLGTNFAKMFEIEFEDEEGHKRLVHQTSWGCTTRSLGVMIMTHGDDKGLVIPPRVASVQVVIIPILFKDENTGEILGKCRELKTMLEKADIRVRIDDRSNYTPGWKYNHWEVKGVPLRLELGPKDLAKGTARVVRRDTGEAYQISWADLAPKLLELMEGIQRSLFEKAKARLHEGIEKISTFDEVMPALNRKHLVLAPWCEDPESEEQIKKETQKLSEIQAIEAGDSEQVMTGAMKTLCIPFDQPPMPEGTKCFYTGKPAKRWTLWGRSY
Nature of the assay: [3H]-proline aminoacylation inhibition assay with cytosolic tRNA(Pro) (TgtRNAn^Pro); IC50 […] with apicoplast TgtRNAa^Pro. In kind it is biochemical.

Assay [2] has as its target T1, Toxoplasma gondii prolyl-tRNA synthetase (TgProRS). Described as above. The class given is biochemical. This is another data set of the same source.

Take `O=C(C[C@H]1NCCC[C@@H]1O)Cn1cnc2cc(Br)c(Cl)cc2c1=O` (racemic) [HF, Halofuginone]: the pIC50 in assay [1] is 8.30. As for `O=C(O)[C@@H]1CCN1` [A2C, Azetidine-2-carboxylic acid], the negative-log IC50 (pIC50) in assay [2] is 2.89.

As a reminder, the pIC50 is the IC50 on a negative log10 scale, so that one unit is a factor of ten. Higher therefore signals a low IC50.
